Measured values from patent publication US20100267561A1, “HERBICIDAL PYRIDAZINONE DERIVATIVES” (priority 2007, published 2010).

Experiments:
Assay type in all cases: in vivo
[1] = test system: large crabgrass (Digitaria sanguinalis); experiment: Test B pre-/postemergence plant response
Outline: (§1)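 Preemergence and postemergence (plants 2-18 cm, 1- to 4-leaf stage) applications used test chemicals in a non-phytotoxic solvent with surfactant. Plants were held in a greenhouse 13 to 15 days, then rated visually against controls on a 0-100 scale (0 no effect, 100 complete control).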

[2] = test system: woolly cupgrass (Eriochloa villosa); experiment: Test B pre-/postemergence plant response
Outline: as §1

[3] = test system: Italian ryegrass (Lolium multiflorum); experiment: Test C pre-/postemergence plant response
Outline: (§2)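 Seeds are planted and sprayed preemergence, while established plants at the 1- to 4-leaf stage (2 to 18 cm) receive postemergence sprays of the same surfactant-containing, non-phytotoxic solvent formulation. After 15 to 25 days under controlled conditions, injury is scored visually from 0 (no effect) to 100 (complete control).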

[4] = test system: annual bluegrass (Poa annua); experiment: Test C pre-/postemergence plant response
Outline: as §2

[5] = test system: blackgrass (Alopecurus myosuroides); experiment: Test C pre-/postemergence plant response
Outline: as §2

[6] = test system: canarygrass (Phalaris minor); experiment: Test C pre-/postemergence plant response; conditions: Preemergence
Outline: as §2

[7] = test system: downy bromegrass (Bromus tectorum); experiment: Test C pre-/postemergence plant response
Outline: as §2

[8] = test system: green foxtail (Setaria viridis); experiment: Test C pre-/postemergence plant response
Outline: as §2

[9] = test system: pigweed (Amaranthus retroflexus); experiment: Test C pre-/postemergence plant response
Outline: as §2

[10] = test system: spring barley (Hordeum vulgare); experiment: Test C pre-/postemergence plant response
Outline: as §2

[11] = test system: wild mustard (Sinapis arvensis); experiment: Test C pre-/postemergence plant response
Outline: as §2

[12] = test system: wild oat (Avena fatua); experiment: Test C pre-/postemergence plant response
Outline: as §2

[13] = test system: winter wheat (Triticum aestivum); experiment: Test C pre-/postemergence plant response
Outline: as §2

[14] = 8 g ai/ha, postemergence, 0-100 scale
[15] = Postemergence, 16 g ai/ha, scale 0 to 100
[16] = Postemergence, 31 g ai/ha, scale 0 to 100
[17] = Postemergence, 62 g ai/ha, scale 0 to 100, 0 no effect, 100 complete control
[18] = Preemergence, 31 g ai/ha, scale 0 to 100 (0 no effect, 100 complete control)
[19] = Preemergence, 62 g ai/ha, 0 to 100 scale, 0 no effect, 100 complete control
[20] = Preemergence, 8 g ai/ha, scale 0 to 100
[21] = Preemergence, 16 g ai/ha, scale 0 to 100
[22] = Postemergence, 8 g ai/ha, scale 0 to 100, 0 no effect, 100 complete control
[23] = Postemergence, 16 g ai/ha, scale 0 to 100, 0 no effect, 100 complete control
[24] = Postemergence, 31 g ai/ha, scale 0 to 100, 0 no effect, 100 complete control
[25] = Preemergence, 8 g ai/ha, scale 0 to 100 (0 no effect, 100 complete control)
[26] = Preemergence, 16 g ai/ha, scale 0 to 100 (0 no effect, 100 complete control)
[27] = Preemergence, 62 g ai/ha, scale 0 to 100, 0 no effect, 100 complete control

Structure (SMILES): Cc1cc(-c2ccc(Cl)cc2)nn1-c1c(OC(=O)OCC(C)C)cnn(C)c1=O [Compound 57]
- Crabgrass, Large plant response rating [1, 14]: 75
- Plant response rating, Crabgrass, Large [1, 15]: 95
- Plant response rating, Crabgrass, Large [1, 16]: 98
- Plant response rating, Crabgrass, Large [1, 17]: 100
- Plant response rating, Crabgrass, Large [1, 18]: 98
- Plant response rating, Crabgrass, Large [1, 19]: 100
- Crabgrass, Large plant response rating [1, 20]: 0
- Crabgrass, Large plant response rating [1, 21]: 0
- Cupgrass, Woolly plant response rating [2, 14]: 65
- Plant response rating, Cupgrass, Woolly [2, 15]: 90
- Plant response rating, Cupgrass, Woolly [2, 16]: 100
- Plant response rating, Cupgrass, Woolly [2, 17]: 100
- Plant response rating, Cupgrass, Woolly [2, 18]: 85
- Plant response rating, Cupgrass, Woolly [2, 19]: 100
- Cupgrass, Woolly plant response rating [2, 20]: 0
- Cupgrass, Woolly plant response rating [2, 21]: 20
- Plant response rating, Ryegrass, Italian [3, 22]: 75
- Plant response rating, Ryegrass, Italian [3, 23]: 98
- Plant response rating, Ryegrass, Italian [3, 24]: 100
- Plant response rating, Ryegrass, Italian [3, 17]: 100
- Plant response rating, Ryegrass, Italian [3, 25]: 65
- Plant response rating, Ryegrass, Italian [3, 26]: 85
- Plant response rating, Ryegrass, Italian [3, 18]: 100
- Plant response rating, Ryegrass, Italian [3, 27]: 100
- Plant response rating, Bluegrass [4, 22]: 0
- Plant response rating, Bluegrass [4, 23]: 10
- Plant response rating, Bluegrass [4, 24]: 30
- Plant response rating, Bluegrass [4, 17]: 35
- Plant response rating, Bluegrass [4, 25]: 0
- Plant response rating, Bluegrass [4, 26]: 30
- Plant response rating, Bluegrass [4, 18]: 50
- Plant response rating, Bluegrass [4, 27]: 65
- Plant response rating, Blackgrass [5, 22]: 35
- Plant response rating, Blackgrass [5, 23]: 75
- Plant response rating, Blackgrass [5, 24]: 98
- Plant response rating, Blackgrass [5, 25]: 75
- Plant response rating, Blackgrass [5, 26]: 85
- Plant response rating, Blackgrass [5, 18]: 95
- Plant response rating, Blackgrass [5, 27]: 95
- Plant response rating, Canarygrass ([6]; 8 g ai/ha, scale 0 to 100 (0 no effect, 100 complete control)): 0
- Plant response rating, Canarygrass ([6]; 16 g ai/ha, scale 0 to 100 (0 no effect, 100 complete control)): 75
- Plant response rating, Canarygrass ([6]; 31 g ai/ha, scale 0 to 100 (0 no effect, 100 complete control)): 80
- Plant response rating, Canarygrass ([6]; 62 g ai/ha, scale 0 to 100, 0 no effect, 100 complete control): 90
- Plant response rating, Bromegrass, Downy [7, 22]: 0
- Plant response rating, Bromegrass, Downy [7, 23]: 30
- Plant response rating, Bromegrass, Downy [7, 24]: 30
- Plant response rating, Bromegrass, Downy [7, 17]: 70
- Plant response rating, Bromegrass, Downy [7, 25]: 0
- Plant response rating, Bromegrass, Downy [7, 26]: 20
- Plant response rating, Bromegrass, Downy [7, 18]: 40
- Plant response rating, Bromegrass, Downy [7, 27]: 80
- Plant response rating, Foxtail, Green [8, 22]: 90
- Plant response rating, Foxtail, Green [8, 23]: 100
- Plant response rating, Foxtail, Green [8, 24]: 100
- Plant response rating, Foxtail, Green [8, 17]: 100
- Plant response rating, Foxtail, Green [8, 25]: 40
- Plant response rating, Foxtail, Green [8, 26]: 100
- Plant response rating, Foxtail, Green [8, 18]: 100
- Plant response rating, Foxtail, Green [8, 27]: 100
- Plant response rating, Pigweed [9, 22]: 0
- Plant response rating, Pigweed [9, 23]: 0
- Plant response rating, Pigweed [9, 24]: 0
- Plant response rating, Pigweed [9, 17]: 0
- Plant response rating, Pigweed [9, 25]: 0
- Plant response rating, Pigweed [9, 26]: 0
- Plant response rating, Pigweed [9, 18]: 0
- Plant response rating, Pigweed [9, 27]: 0
- Plant response rating, Barley, Spring [10, 22]: 0
- Plant response rating, Barley, Spring [10, 23]: 20
- Plant response rating, Barley, Spring [10, 24]: 30
- Plant response rating, Barley, Spring [10, 17]: 40
- Plant response rating, Barley, Spring [10, 25]: 0
- Plant response rating, Barley, Spring [10, 26]: 0
- Plant response rating, Barley, Spring [10, 18]: 20
- Plant response rating, Barley, Spring [10, 27]: 40
- Plant response rating, Mustard, Wild [11, 22]: 0
- Plant response rating, Mustard, Wild [11, 23]: 0
- Plant response rating, Mustard, Wild [11, 24]: 0
- Plant response rating, Mustard, Wild [11, 17]: 0
- Plant response rating, Mustard, Wild [11, 25]: 0
- Plant response rating, Mustard, Wild [11, 26]: 0
- Plant response rating, Mustard, Wild [11, 18]: 0
- Plant response rating, Mustard, Wild [11, 27]: 0
- Plant response rating, Oat, Wild [12, 22]: 10
- Plant response rating, Oat, Wild [12, 23]: 90
- Plant response rating, Oat, Wild [12, 24]: 90
- Plant response rating, Oat, Wild [12, 17]: 100
- Plant response rating, Oat, Wild [12, 25]: 0
- Plant response rating, Oat, Wild [12, 26]: 15
- Plant response rating, Oat, Wild [12, 18]: 60
- Plant response rating, Oat, Wild [12, 27]: 80
- Plant response rating, Wheat, Winter [13, 22]: 0
- Plant response rating, Wheat, Winter [13, 23]: 30
- Plant response rating, Wheat, Winter [13, 24]: 30
- Plant response rating, Wheat, Winter [13, 17]: 50
- Plant response rating, Wheat, Winter [13, 25]: 15
- Plant response rating, Wheat, Winter [13, 26]: 15
- Plant response rating, Wheat, Winter [13, 18]: 20
- Plant response rating, Wheat, Winter [13, 27]: 65
